Results reported in ChEMBL document CHEMBL1152560, “Substituted 2-arylbenzothiazoles as kinase inhibitors: hit-to-lead optimization” (Bioorg Med Chem, 2009).

What was measured:
[1] = biological target: G protein-coupled receptor kinase 6 (Homo sapiens) (UniProt P43250); test: Residual activity of GRK6 at 1 uM by microplate scintillation counting
[2] = biological target: T1, MAP kinase-activated protein kinase 5 (Homo sapiens) (UniProt Q8IW41); test: Residual activity of MAPKAPK5 at 1 uM by microplate scintillation counting
T1 sequence (whole entry): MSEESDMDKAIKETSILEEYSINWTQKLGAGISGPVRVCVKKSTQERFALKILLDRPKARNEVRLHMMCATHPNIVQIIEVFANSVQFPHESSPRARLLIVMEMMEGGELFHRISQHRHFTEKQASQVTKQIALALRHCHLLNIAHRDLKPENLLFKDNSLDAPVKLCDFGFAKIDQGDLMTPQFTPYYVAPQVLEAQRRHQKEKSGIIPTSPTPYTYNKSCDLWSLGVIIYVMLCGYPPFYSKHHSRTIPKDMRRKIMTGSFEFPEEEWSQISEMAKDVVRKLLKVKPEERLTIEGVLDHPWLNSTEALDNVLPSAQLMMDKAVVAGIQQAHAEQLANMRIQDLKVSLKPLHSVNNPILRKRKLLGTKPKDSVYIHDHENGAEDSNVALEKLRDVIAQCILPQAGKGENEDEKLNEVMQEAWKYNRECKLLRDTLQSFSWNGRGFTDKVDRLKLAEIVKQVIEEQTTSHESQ

[3] = biological target: Cyclin-dependent kinase 5/CDK5 activator 1 (Homo sapiens) (UniProt Q00535+Q15078); test: Residual activity of CDK5/p35NCK at 10 uM by microplate scintillation counting; type: protein-complex assay
[4] = biological target: Receptor tyrosine-protein kinase erbB-4 (Homo sapiens) (UniProt Q15303); test: Residual activity of ERBB4 at 1 uM by microplate scintillation counting
[5] = biological target: Ribosomal protein S6 kinase alpha-5 (Homo sapiens) (UniProt O75582); test: Residual activity of RPS6KA5 at 1 uM by microplate scintillation counting
Ribosomal protein S6 kinase alpha-5 (Homo sapiens), sequence (O75582 whole entry, looked up): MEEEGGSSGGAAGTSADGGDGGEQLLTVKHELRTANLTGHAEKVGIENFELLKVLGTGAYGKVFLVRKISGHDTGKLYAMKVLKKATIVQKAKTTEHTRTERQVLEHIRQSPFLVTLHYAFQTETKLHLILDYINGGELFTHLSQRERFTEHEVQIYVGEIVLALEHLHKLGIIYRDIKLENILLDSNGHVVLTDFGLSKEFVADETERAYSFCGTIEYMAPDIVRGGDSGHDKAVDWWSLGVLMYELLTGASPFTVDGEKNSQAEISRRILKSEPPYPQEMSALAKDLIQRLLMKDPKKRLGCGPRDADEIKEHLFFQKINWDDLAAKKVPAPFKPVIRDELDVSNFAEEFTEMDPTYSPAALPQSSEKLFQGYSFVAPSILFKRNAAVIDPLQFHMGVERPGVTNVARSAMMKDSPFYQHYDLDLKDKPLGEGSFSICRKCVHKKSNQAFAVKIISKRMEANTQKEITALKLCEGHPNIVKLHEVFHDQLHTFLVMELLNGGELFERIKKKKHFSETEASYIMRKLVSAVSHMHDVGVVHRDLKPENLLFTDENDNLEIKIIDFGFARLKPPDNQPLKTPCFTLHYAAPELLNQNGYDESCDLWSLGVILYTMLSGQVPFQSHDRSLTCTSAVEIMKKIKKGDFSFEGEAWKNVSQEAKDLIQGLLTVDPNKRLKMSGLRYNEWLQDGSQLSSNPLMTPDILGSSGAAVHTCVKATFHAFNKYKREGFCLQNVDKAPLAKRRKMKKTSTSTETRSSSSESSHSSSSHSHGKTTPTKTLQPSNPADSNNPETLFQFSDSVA

[6] = biological target: T2, Serine/threonine-protein kinase Sgk1 (Homo sapiens) (UniProt O00141); test: Residual activity of SGK1 at 10 uM by microplate scintillation counting
T2 sequence (whole entry): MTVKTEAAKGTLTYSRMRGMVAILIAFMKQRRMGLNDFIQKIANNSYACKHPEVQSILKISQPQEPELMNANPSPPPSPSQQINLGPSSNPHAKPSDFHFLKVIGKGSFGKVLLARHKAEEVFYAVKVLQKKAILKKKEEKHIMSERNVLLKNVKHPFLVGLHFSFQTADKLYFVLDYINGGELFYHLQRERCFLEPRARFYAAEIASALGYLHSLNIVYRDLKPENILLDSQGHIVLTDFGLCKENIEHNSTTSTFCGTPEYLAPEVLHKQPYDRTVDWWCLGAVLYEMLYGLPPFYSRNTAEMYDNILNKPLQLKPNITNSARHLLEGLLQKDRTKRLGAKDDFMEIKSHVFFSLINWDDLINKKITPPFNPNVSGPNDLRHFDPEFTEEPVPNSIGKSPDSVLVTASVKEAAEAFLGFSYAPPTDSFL

[7] = biological target: Receptor tyrosine-protein kinase erbB-4 (Homo sapiens) (UniProt Q15303); test: Residual activity of ERBB4 at 0.1 uM by microplate scintillation counting
[8] = biological target: Tyrosine-protein kinase Fgr (Homo sapiens) (UniProt P09769); test: Residual activity of FGR at 10 uM by microplate scintillation counting
[9] = biological target: T3, Tyrosine-protein kinase ITK/TSK (Homo sapiens) (UniProt Q08881); test: Residual activity of ITK at 0.1 uM by microplate scintillation counting
T3 sequence (whole entry): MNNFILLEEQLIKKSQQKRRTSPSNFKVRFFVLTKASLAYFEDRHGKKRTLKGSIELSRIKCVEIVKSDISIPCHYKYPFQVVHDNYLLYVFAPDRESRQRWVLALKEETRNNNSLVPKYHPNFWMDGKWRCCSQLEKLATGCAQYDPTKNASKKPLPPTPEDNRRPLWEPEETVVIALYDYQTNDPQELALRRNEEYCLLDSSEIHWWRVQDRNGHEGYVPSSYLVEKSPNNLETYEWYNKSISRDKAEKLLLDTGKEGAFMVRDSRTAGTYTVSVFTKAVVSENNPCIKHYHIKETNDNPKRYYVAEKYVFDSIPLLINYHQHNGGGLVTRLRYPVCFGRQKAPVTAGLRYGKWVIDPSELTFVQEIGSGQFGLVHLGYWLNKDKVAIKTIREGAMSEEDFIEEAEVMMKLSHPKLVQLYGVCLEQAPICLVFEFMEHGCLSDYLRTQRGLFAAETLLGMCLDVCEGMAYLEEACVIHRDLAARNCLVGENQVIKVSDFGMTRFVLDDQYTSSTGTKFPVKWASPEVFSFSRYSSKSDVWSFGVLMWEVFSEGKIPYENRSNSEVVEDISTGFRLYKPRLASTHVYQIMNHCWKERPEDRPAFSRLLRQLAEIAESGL

[10] = biological target: Insulin receptor (Homo sapiens) (UniProt P06213); test: Residual activity of INSR at 1 uM by microplate scintillation counting
Insulin receptor (Homo sapiens), sequence (P06213 28-758 limits assumed): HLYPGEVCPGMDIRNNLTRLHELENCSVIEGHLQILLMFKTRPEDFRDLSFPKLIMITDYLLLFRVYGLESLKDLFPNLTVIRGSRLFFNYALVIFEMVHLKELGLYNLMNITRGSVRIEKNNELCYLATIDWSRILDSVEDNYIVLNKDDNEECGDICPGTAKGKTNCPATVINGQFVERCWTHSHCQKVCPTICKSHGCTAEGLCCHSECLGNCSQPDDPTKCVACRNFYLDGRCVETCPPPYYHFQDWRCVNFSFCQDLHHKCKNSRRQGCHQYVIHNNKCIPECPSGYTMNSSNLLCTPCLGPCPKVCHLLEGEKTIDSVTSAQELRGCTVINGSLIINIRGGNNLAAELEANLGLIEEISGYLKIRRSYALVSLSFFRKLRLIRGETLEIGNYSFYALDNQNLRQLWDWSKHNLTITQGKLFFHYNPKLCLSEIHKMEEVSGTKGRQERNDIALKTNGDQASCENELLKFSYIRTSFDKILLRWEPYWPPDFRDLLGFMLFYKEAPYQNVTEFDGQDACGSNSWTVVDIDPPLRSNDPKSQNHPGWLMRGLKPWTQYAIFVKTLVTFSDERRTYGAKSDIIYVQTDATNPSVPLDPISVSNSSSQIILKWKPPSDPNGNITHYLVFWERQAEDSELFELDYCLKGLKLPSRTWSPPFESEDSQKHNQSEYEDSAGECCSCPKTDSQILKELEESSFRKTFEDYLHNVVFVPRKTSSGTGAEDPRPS
Insulin receptor (Homo sapiens), sequence (P06213 763-1382 limits assumed): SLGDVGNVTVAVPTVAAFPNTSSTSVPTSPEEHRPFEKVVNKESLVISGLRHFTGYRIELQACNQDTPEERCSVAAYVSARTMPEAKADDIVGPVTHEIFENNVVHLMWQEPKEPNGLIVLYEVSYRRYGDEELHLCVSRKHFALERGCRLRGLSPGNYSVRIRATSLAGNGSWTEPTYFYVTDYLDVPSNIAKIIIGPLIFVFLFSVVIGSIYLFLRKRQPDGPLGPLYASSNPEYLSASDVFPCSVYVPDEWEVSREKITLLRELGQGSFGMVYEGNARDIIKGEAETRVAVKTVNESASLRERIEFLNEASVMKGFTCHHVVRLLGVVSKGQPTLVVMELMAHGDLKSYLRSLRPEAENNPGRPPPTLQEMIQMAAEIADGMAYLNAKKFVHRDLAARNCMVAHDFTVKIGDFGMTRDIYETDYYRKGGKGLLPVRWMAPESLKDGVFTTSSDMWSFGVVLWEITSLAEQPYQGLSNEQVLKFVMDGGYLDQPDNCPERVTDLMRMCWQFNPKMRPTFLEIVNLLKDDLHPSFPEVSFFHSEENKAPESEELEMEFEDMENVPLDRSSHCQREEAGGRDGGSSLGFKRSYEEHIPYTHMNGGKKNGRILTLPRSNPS

[11] = biological target: Tyrosine-protein kinase ABL2 (Homo sapiens) (UniProt P42684); test: Residual activity of ABL2 at 0.1 uM by microplate scintillation counting
[12] = biological target: LIM domain kinase 1 (Homo sapiens) (UniProt P53667); test: Residual activity of LIMK1 at 10 uM by microplate scintillation counting
LIM domain kinase 1 (Homo sapiens), sequence (P53667 whole entry, looked up, the tested form may be a part): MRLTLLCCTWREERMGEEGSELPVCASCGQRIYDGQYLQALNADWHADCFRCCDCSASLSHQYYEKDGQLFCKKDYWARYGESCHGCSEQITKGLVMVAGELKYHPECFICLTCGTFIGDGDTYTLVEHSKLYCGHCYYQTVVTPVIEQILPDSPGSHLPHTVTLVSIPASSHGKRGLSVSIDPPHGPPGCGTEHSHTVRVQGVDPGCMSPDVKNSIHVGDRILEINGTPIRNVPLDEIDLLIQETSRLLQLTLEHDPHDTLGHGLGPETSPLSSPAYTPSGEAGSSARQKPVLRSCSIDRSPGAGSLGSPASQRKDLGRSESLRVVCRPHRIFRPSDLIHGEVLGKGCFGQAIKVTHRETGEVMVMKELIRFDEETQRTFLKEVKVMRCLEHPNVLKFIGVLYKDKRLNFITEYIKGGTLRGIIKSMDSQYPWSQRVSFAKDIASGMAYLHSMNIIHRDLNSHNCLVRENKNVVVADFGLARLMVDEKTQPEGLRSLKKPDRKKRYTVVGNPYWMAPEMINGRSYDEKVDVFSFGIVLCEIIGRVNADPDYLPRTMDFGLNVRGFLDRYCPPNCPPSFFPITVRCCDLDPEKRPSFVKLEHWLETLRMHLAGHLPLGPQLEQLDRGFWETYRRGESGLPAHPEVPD

[13] = biological target: Mitogen-activated protein kinase kinase kinase kinase 4 (Homo sapiens) (UniProt O95819); test: Residual activity of MAP4K4 at 10 uM by microplate scintillation counting
Mitogen-activated protein kinase kinase kinase kinase 4 (Homo sapiens), sequence (O95819 2-1239 limits assumed): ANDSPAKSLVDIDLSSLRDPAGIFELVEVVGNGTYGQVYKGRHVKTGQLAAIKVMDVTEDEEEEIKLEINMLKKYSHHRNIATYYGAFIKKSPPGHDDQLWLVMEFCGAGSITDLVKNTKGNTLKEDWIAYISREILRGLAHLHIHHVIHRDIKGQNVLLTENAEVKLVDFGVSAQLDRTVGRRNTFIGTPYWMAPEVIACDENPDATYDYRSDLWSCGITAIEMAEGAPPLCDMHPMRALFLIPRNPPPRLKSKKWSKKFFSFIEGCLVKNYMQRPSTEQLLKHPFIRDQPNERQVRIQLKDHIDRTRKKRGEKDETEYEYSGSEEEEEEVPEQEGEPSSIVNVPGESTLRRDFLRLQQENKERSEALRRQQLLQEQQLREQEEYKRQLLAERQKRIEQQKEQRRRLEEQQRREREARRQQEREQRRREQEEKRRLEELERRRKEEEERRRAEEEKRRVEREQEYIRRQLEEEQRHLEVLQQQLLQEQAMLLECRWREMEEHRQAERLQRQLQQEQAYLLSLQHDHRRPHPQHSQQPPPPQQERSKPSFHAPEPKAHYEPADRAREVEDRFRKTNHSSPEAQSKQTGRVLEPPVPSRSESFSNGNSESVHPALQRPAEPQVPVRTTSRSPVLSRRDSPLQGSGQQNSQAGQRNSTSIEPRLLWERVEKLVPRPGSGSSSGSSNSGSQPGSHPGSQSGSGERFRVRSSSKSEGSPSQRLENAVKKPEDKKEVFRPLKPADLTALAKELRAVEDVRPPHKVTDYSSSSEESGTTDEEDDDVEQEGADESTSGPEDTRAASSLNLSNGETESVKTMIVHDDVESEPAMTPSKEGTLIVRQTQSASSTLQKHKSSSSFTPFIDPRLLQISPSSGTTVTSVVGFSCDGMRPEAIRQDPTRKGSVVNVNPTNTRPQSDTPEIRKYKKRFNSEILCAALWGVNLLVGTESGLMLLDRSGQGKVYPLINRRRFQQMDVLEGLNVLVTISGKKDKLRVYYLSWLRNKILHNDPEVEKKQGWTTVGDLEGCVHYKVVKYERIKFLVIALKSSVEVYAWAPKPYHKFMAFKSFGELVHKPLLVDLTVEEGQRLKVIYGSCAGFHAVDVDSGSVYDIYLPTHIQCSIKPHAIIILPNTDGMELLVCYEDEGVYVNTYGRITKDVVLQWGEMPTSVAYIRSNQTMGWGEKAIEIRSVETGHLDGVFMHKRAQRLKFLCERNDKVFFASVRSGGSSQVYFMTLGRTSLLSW

G protein-coupled receptor kinase 6 (Homo sapiens), sequence (P43250 whole entry, looked up): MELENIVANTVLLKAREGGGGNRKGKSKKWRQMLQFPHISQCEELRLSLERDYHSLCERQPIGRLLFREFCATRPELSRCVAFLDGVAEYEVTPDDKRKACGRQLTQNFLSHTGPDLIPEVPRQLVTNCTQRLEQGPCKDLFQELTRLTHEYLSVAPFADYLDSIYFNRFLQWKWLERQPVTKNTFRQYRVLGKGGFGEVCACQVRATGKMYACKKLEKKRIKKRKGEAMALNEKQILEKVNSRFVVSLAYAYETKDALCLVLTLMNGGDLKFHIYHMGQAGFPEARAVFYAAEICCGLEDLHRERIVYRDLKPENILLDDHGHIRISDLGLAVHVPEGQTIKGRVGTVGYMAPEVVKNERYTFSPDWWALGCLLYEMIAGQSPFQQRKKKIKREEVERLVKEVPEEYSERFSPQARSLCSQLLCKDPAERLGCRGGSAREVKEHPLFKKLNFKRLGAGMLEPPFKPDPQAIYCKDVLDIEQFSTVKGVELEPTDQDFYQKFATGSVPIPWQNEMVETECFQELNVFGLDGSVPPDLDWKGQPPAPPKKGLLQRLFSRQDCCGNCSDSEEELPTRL

residual activity [1] [%] | residual activity [2] [%] | residual activity [3] [%] | residual activity [4] [%] | residual activity [5] [%] | residual activity [6] [%] | residual activity [7] [%] | residual activity [8] [%] | residual activity [9] [%] | residual activity [10] [%] | residual activity [11] [%] | residual activity [12] [%] | residual activity [13] [%] | Compound
90 | 90 | 98 | 109 | 87 | 92 | 102 | 90 | 98 | 95 | 116 | 96 | 76 | COc1cc2c(Oc3ccc(-c4nc5ccccc5s4)cc3)ncnc2cc1OCCCN1CCCC1
80 | 107 | 96 | 99 | 81 | 0 | 87 | 82 | 99 | 98 | 100 | 89 | 101 | COc1cc2c(Oc3ccc(-c4nc5ccccc5s4)cc3)ncnc2cc1OCCCN1CCN(C)CC1
93 | 90 | 86 | 103 | 71 | 117 | 100 | 24 | 107 | 97 | 96 | 95 | 96 | COc1cc2c(Oc3ccc(-c4nc5ccccc5s4)cc3F)ncnc2cc1OCCCN1CCN(C)CC1
